Assay results reported in patent publication US20130158040A1, “DIAZAINDOLE INHIBITORS OF CRAC” (Hoffmann-La Roche Inc., priority 2011, published 2013).
pIC50: −log10 of the molar value.

System: Jurkat cell
Assay: Jurkat IL-2 Production Assay
Format: cell-based
Conditions: Homo sapiens; IL-2 production in Jurkat cells; 18 h~20 h incubation; serum/stimulant condition (1% FBS with PHA or 30% FBS with PMA/Ionomycin) not specified
Procedure: Jurkat IL-2 Production Assay
Jurkat cell (ATCC) was grown in RPMI 1640 with 10% FBS and 1% penicillin/streptomycin. The cell density was kept at 1.2˜1.8×10^6/mL in culture flask before seeding into culture plate, and the cell density in the plate was 0.5×10^6/[…]/well.
RPMI 1640 with 1% FBS or 30% FBS for high serum assay.
serial dilution was done in 100% DMSO, and intermediate dilution was done with RPMI 1640 medium with 1% FBS. The DMSO final concentration in culture well was 0.25%.
PHA (Sigma#L9017-10MG) was used for the assay with 1% FBS in culture medium, and added after 10 minutes exposure of cell to compound/DMSO. The PHA final concentration in culture well was 5 μg/mL. PMA (Sigma# P-8139 5MG)/Ionomycin (Sigma#10634-5MG) was used for the assay with 30% FBS in culture medium, and added at same time point as the 1% FBS culture assay. The final concentration of PMA was 50 ng/mL, and Ionomycin final concentration was 500 ng/mL.
at 37° C. with 5% CO2 and 95% humidity for 18 h˜20 h.
IC50 was calculated with the data analysis software XLfit4, General Pharmacology model 251.

Compound	pIC50
COC(=O)c1ccc(-c2cnc3[nH]c(-c4ccccc4Cl)cc3n2)c(C)c1 [Example 3, 4-[6-(2-Chloro-phenyl)-5H-pyrrolo[2,3-b]pyrazin-2-yl]-3-methyl-benzoic acid methyl ester]	6.69
Cc1cc(S(=O)(=O)N(C)C)ccc1-c1cnc2[nH]c(-c3ccccc3Cl)cc2n1 [Example 4, 4-(6-(2-Chlorophenyl)-5H-pyrrolo[2,3-b]pyrazin-2-yl)-N,N,3-trimethylbenzenesulfonamide]	6.88
Cc1cc(S(=O)(=O)N(C)C)ccc1-c1cnc2[nH]c(C3CCCCC3)cc2n1 [Example 7, 4-(6-cyclohexyl-5H-pyrrolo[2,3-b]pyrazin-2-yl)-N,N,3-trimethylbenzenesulfonamide]	6.74

Next, values leading:

pIC50	Compound
6.16	Cc1cc(S(=O)(=O)N(C)C)ccc1-c1ncc2[nH]c(-c3c(F)cccc3Cl)cc2n1 [Example 1, 4-[6-(2-chloro-6-fluoro-phenyl)-5H-pyrrolo[3,2-d]pyrimidin-2-yl]-3,N,N-trimethyl-benzenesulfonamide]
6.12	Cn1nc(C(F)(F)F)cc1-c1cnc2[nH]c(-c3ccccc3Cl)cc2n1 [Example 2, 6-(2-Chloro-phenyl)-2-(2-methyl-5-trifluoromethyl-2H-pyrazol-3-yl)-5H-pyrrolo[2,3-b]pyrazine]
6.57	Cn1nc(C(F)(F)F)cc1-c1cnc2[nH]c(-c3c(F)cccc3Cl)cc2n1 [Example 5, 6-(2-chloro-6-fluorophenyl)-2-(1-methyl-3-(trifluoromethyl)-1H-pyrazol-5-yl)-5H-pyrrolo[2,3-b]pyrazine]
6.17	Cn1nc(C(F)(F)F)cc1-c1cnc2[nH]c(C3CCCCC3)cc2n1 [Example 6, 6-Cyclohexyl-2-(1-methyl-3-(trifluoromethyl)-1H-pyrazol-5-yl)-5H-pyrrolo[2,3-b]pyrazine]
